Where only a bound is given, the exact number is not on record here.

The subject of one experiment is SARS-CoV-2 replicon. Nature of the experiment: microbe, parasite or virus in culture. It counts as cell-based. The conditions noted are these: Severe acute respiratory syndrome coronavirus 2, Huh-7.
The target in experiment [1] is SARS-CoV-2 Papain-like (PLpro) protease (Severe acute respiratory syndrome coronavirus 2, UniProt P0DTD1). Nature of the experiment: SARS-CoV-2 Papain-like (PLpro) protease biochemical enzyme inhibition assay (ubiquitin-fluorophore substrate, Ub-R110). The conditions noted are these: Ub-R110 substrate; run in duplicate; read-out: PLpro IC50.

`O=C(NCC#Cc1nccs1)C(=O)NCc1ccccc1C(=O)NC1(c2cccc(-c3cnn(C4CC4)c3)c2Cl)CC1` [Example 385] showed an EC50 in the experiment on SARS-CoV-2 replicon of less than 1000 nM. Moreover, in experiment [1], the IC50 is less than 100 nM.

As for `N#CCNC(=O)C(=O)NCc1ccccc1C(=O)NC1(c2cc(-c3cnn(C4CC4)c3)cc3ccccc23)CC1` [Example 357], in the experiment with SARS-CoV-2 replicon, the EC50 was less than 1000 nM. Also, in experiment [1], the 50% inhibitory concentration (IC50) was less than 100 nM.

For `O=C(NCC#Cc1nccs1)C(=O)NCc1ccccc1C(=O)NC1(c2cc(F)cc(-c3cnn(C4CC4)c3)c2)CC1` [Example 243], the EC50 in the experiment on SARS-CoV-2 replicon is less than 1000 nM. Also, the IC50 in experiment [1] is less than 100 nM.

Turning to `N#CCNC(=O)C(=O)NCc1ccccc1C(=O)NC1(c2cc(Cl)cc(-n3cccn3)c2)CC1` [Example 480], in the experiment on SARS-CoV-2 replicon, the EC50 was 1000 to 10000 nM. Also, the IC50 in experiment [1] was less than 100 nM.

In the experiment on SARS-CoV-2 replicon, `C#CCNC(=O)C(=O)NCc1ccccc1C(=O)NC1(c2cc(C#C)cc(C(F)(F)F)c2)CC1` [Example 69] came in with an EC50 of less than 1000 nM. In addition, the IC50 in experiment [1] is less than 100 nM.

On to `COCc1ccc(-c2cc(C3(NC(=O)c4ccccc4CNC(=O)C(=O)NCC#N)CC3)c3ccccc3c2)s1` [Example 352], for which, in the experiment with SARS-CoV-2 replicon, the EC50 is less than 1000 nM. In addition, the IC50 in experiment [1] is less than 100 nM.

As for `C#CCNC(=O)C(=O)NCc1ccccc1C(=O)NC1(c2cc(OC)c3nn(C4CC4)cc3c2)CC1` [Example 343], the EC50 in the experiment on SARS-CoV-2 replicon was less than 1000 nM. Also, the IC50 in experiment [1] is less than 100 nM.

On to `Cn1cc2cc(C3(NC(=O)c4ccccc4CNC(=O)C(=O)NCC#Cc4ccc(S(C)(=O)=O)cc4F)CC3)ccc2n1` [Example 147], for which the EC50 with SARS-CoV-2 replicon was less than 1000 nM. Also, the IC50 in experiment [1] is less than 100 nM.

As for `CN1C(=O)c2cccc3c(C4(NC(=O)c5ccccc5CNC(=O)C(=O)NCC#N)CC4)ccc1c23` [Example 428], in the experiment on SARS-CoV-2 replicon, the concentration for a half-maximal effect (EC50) lay within 1000 to 10000 nM. Also, the IC50 in experiment [1] is less than 100 nM.

`CN(C)CCn1cc(-c2cc(F)cc(C3(NC(=O)c4ccccc4CNC(=O)C(=O)NCC#Cc4nccs4)CC3)c2)cn1` [Example 251] returned an EC50 in the experiment with SARS-CoV-2 replicon of less than 1000 nM. Also, in experiment [1], the IC50 was less than 100 nM.

`N#CCNC(=O)C(=O)NCc1ccccc1C(=O)NC1(c2cc(F)cc(-c3cnn(C4CC4)c3)c2)CC1` [Example 222] had an EC50 with SARS-CoV-2 replicon of more than 10000 nM. Further, the 50% inhibitory concentration (IC50) in experiment [1] is less than 100 nM.

As to `COc1cc(-c2cnn(C3CC3)c2)cc(C2(NC(=O)c3ccccc3CNC(=O)C(=O)NCC#Cc3nccs3)CC2)c1` [Example 246], the concentration giving a half-maximal response (EC50) in the experiment on SARS-CoV-2 replicon was less than 1000 nM. The IC50 in experiment [1] is less than 100 nM.

Take `C#CCNC(=O)C(=O)NCc1ccccc1C(=O)NC1(c2cc(-c3cnn(C4CC4)c3)cc(C(F)(F)F)c2)CC1` [Example 471]: the EC50 with SARS-CoV-2 replicon is less than 1000 nM. The IC50 in experiment [1] is less than 100 nM.

In the experiment with SARS-CoV-2 replicon, `O=C(NCC#Cc1cnc(C(F)(F)F)nc1)C(=O)NCc1ccccc1C(=O)NC1(c2ccc3ccccc3c2)CC1` [Example 181] came in with an EC50 of less than 1000 nM. The IC50 in experiment [1] was less than 100 nM.

`CN1CCC1COc1ccc(CNC(=O)C(=O)NCC#N)c(C(=O)NC2(c3cccc4ccccc34)CC2)c1` (stereo not shown) [Example 331]: the EC50 with SARS-CoV-2 replicon is less than 1000 nM. In addition, the half-inhibitory concentration (IC50) in experiment [1] is less than 100 nM.

`C[C@@H](C#Cc1ccc(C#N)cc1F)NC(=O)C(=O)NCc1ccccc1C(=O)NC1(c2ccc3nn(C)cc3c2)CC1` [Example 98] registered an EC50 in the experiment with SARS-CoV-2 replicon of less than 1000 nM. The 50% inhibitory concentration (IC50) in experiment [1] was less than 100 nM.

Regarding `O=C(/C=C/CNC(=O)C(=O)NCc1ccccc1C(=O)NC1(c2cccc3ccccc23)CC1)NC1CC1` [Example 541], the EC50 in the experiment on SARS-CoV-2 replicon was more than 10000 nM. Besides, the IC50 in experiment [1] fell in the range of 100 to 1000 nM.

`C#CCNC(=O)C(=O)NCc1ccccc1C(=O)NC1(c2cc(-c3cn(C4CC4)nn3)cc(C(F)(F)F)c2)CC1` [Example 59] gave an EC50 in the experiment with SARS-CoV-2 replicon of less than 1000 nM. The IC50 in experiment [1] is less than 100 nM.

`O=C(NCC#Cc1nccs1)C(=O)NCc1ccccc1C(=O)NC1(c2ccc3nc(C4CC4)ccc3c2)CC1` [Example 396]: in the experiment on SARS-CoV-2 replicon, the EC50 is less than 1000 nM. Further, the 50% inhibitory concentration (IC50) in experiment [1] is less than 100 nM.

In the experiment with SARS-CoV-2 replicon, `N#Cc1ccc(C#CCNC(=O)C(=O)NCc2ccccc2C(=O)NC2(c3ccc4ccccc4c3)CC2)nc1` [Example 190] displayed a half-maximal effective concentration (EC50) of less than 1000 nM. In addition, the IC50 in experiment [1] is less than 100 nM.
